In US11116757B2 (priority 2015, dated 2021):

molecular target: DCN1-UBC12 interaction (Homo sapiens (Human), UniProt Q96GG9); assay: biochemical; type: binding; conditions: TR-FRET IC50
Sequence (Q96GG9 60-248 limits assumed): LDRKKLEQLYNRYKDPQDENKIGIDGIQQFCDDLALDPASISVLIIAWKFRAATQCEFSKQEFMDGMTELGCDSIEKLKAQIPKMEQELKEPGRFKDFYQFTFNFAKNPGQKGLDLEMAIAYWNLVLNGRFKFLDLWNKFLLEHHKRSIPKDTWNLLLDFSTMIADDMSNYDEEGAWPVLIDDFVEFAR

Row | Compound | IC50
1 | CCCC(C)N1CCC(N(Cc2ccccc2)C(=O)Nc2ccc(C(C)(C)C)cc2)CC1 (stereo not shown) [A100] | 1.41 µM
2 | CCCC(C)N1CCC(N(Cc2ccccc2)C(=O)Nc2ccc(C(F)(F)F)nc2C)CC1 (stereo not shown) [A178] | 15.8 µM
3 | CCCC(C)N1CCC(N(Cc2ccccc2)C(=O)Nc2cccc(C(C)C)c2)CC1 (stereo not shown) [A33] | 0.2 µM

same assay, conditions: Table 4, commercial compounds; read-out: TR-FRET IC50

Row | Compound | IC50
4 | O=C(Nc1ccc(F)c(Cl)c1)C1CCN(C(=O)c2ccc(Br)cc2)CC1 [C70] | > 83.8 µM
5 | O=C(Nc1ccc(Cl)c(C(F)(F)F)c1)C1CCN(C(=O)c2ccc(F)cc2)CC1 [C20] | > 67.6 µM
6 | CCc1cccc(NC(=O)C2CCN(C(=O)c3cnn(-c4ccccc4)c3-n3cccc3)CC2)c1 [C69] | > 81.4 µM
7 | CCc1cccc(C)c1NC(=O)C1CCN(C(=O)c2ccccc2Cl)CC1 [C37] | > 67.6 µM
8 | COc1cccc(NC(=O)C2CCN(C(=O)c3cccc(F)c3)CC2)c1 [C43] | > 67.6 µM
9 | O=C(Nc1cccc(C(F)(F)F)c1)C1CCN(C(=O)/C=C/c2ccccc2)CC1 [C57] | > 67.6 µM
10 | O=C(Nc1ccc(C(F)(F)F)cc1)N1CCN(C/C=C/c2ccccc2)CC1 [C13] | > 66.3 µM
11 | COc1cc(C(=O)N2CCC(C(=O)Nc3ccc(Br)cc3)CC2)cc(OC)c1OC [C24] | > 67.6 µM
12 | COc1cccc(NC(=O)C2CCN(C(=O)c3cnn(-c4ccccc4)c3-n3cccc3)CC2)c1 [C8] | > 67.6 µM

same assay, conditions: Table 6, commercial compounds; read-out: TR-FRET IC50

Row | Compound | IC50
13 | Cc1c(C(=O)N2CCN(C)CC2)cnn1-c1nccc(-c2cccs2)n1 [E49] | > 67.6 µM
14 | CCN(CC)CCNC(=O)c1cnn(-c2ncc(C)c(-c3cccs3)n2)c1C1CC1 [E28] | > 37.4 µM
15 | CCN(CCN(C)C)C(=O)c1cnn(-c2ncc(C)c(-c3cccs3)n2)c1COC [E46] | > 67.6 µM
16 | Cc1cnc(-n2ncc(C(=O)NCCC(C)C)c2C)nc1-c1cccs1 [E29] | > 67.6 µM
17 | CCN1CCN(C(=O)c2cnn(-c3ncc(C)c(-c4cccs4)n3)c2C2CC2)CC1 [E44] | > 67.6 µM
18 | CC(C)c1c(C(=O)N2CCN(C(C)C)CC2)cnn1-c1nccc(-c2cccs2)n1 [E62] | > 77 µM
19 | CCN(CC)CCNC(=O)c1cnn(-c2nccc(-c3cccs3)n2)c1COC [E31] | > 67.6 µM
20 | CCN(CC)CCN(C)C(=O)c1cnn(-c2ncc(C)c(-c3cccs3)n2)c1COC [E38] | > 67.6 µM
21 | CC(=O)N1CCN(C(=O)c2cnn(-c3nccc(-c4cccs4)n3)c2C2CC2)CC1 [E24] | 61.6 µM
22 | Cc1c(C(=O)N(C)CC(C)C)cnn1-c1nccc(-c2cccs2)n1 [E6] | 18.8 µM

same assay, conditions: Table 7, commercial compounds; read-out: TR-FRET IC50

Row | Compound | IC50
23 | Cc1cccc(C(=O)NC2C(=O)Nc3c(c(C)nn3C)C2c2ccc(C(C)C)cc2)c1 (stereo not shown) [F16] | > 67.6 µM
24 | CSc1ccc(C2c3c(C)nn(C)c3NC(=O)C2NC(=O)c2cccc(C)c2)cc1 (stereo not shown) [F6] | 39.5 µM
25 | Cc1nn(C)c2c1C(c1ccc(F)c(F)c1)C(NC(=O)c1ccc(Cl)cc1)C(=O)N2 (stereo not shown) [F26] | > 67.6 µM
26 | COc1cccc(C2c3c(C)nn(C)c3NC(=O)C2NC(=O)c2ccc(OC)c(OC)c2)c1 (stereo not shown) [F21] | > 67.6 µM
27 | Cc1cccc(C(=O)NC2C(=O)Nc3c(c(C)nn3C)C2c2ccc(F)c(Br)c2)c1 (stereo not shown) [F17] | > 67.6 µM

same assay, conditions: read-out: TR-FRET IC50

Row | Compound | IC50
28 | CC1CN(Cc2ccccc2)CCC1N(C)C(=O)NC1C(=O)N(c2ccccc2)N(C)C1C (stereo not shown) [B27] | > 28.1 µM
29 | CCCN1CCC(N(CCC)C(=O)Nc2cccc(C(F)(F)F)c2)CC1 [A167, 1-Propyl-1-(1-Propylpiperidin-4-yl)-3-(3-(Trifluoromethyl)Phenyl)Urea] | 10.5 µM
30 | COc1cccc(C(=O)N2CCC(c3nc4ccccc4s3)CC2)c1 [D14] | 66.4 µM
31 | C=CC(=O)NCCN(C(=O)Nc1cccc(C(F)(F)F)c1)C1CCN(C(C)CCC)CC1 (stereo not shown) [A187] | 33.8 µM
32 | CCCC1CCC(N(Cc2ccccc2)C(=O)c2cccc(C(F)(F)F)c2)CC1 (stereo not shown) [A193] | < 0.0029 µM
33 | CCN1CCC(N(Cc2ccc(F)cc2)C(=O)Nc2ccccc2Cl)CC1 [B97] | > 67.6 µM
34 | C#CCCCN1CCC(N(Cc2ccccc2NC(=O)/C=C/C)C(=O)Nc2cccc(C(F)(F)F)c2)CC1 [A195] | > 100 µM
35 | CC(c1cccc(O)c1)N1CCC(N(Cc2ccccc2)C(=O)Nc2cc(F)cc(C(F)(F)F)c2)CC1 (stereo not shown) [A218] | > 24 µM
36 | O=C(c1ccccc1Br)N1CCC(c2nc3ccccc3s2)CC1 [D8] | 19.8 µM
37 | CCCCN1CCC(N(Cc2ccccc2)C(=O)Nc2cccnc2)CC1 [A280] | > 70.1 µM
38 | CCOc1ccc(C(=O)N2CCCC(c3nc4ccccc4s3)C2)cc1 (stereo not shown) [D25] | > 67.6 µM
39 | CCCC(C)N1CCC(N(Cc2ccccc2)C(=O)Nc2ccc(C(F)(F)F)cc2[NH2+][O-])CC1 (stereo not shown) [A174] | 13.2 µM
40 | CCCN1CCC(N(CCOC)C(=O)Nc2cccc(C(F)(F)F)c2)CC1 [A248, 1-(2-Methoxyethyl)-1-(1-Propylpiperidin-4-yl)-3-(3-(Trifluoromethyl)Phenyl)Urea] | > 58.9 µM
41 | CCN1CCC(N(Cc2ccco2)C(=O)Nc2cccc(C(F)(F)F)c2)CC1 [B3] | 3.85 µM
42 | CCCC(C)N1CCC(N(Cc2ccccc2)C(=O)Nc2cccc(-c3ccccc3)c2)CC1 (stereo not shown) [A129] | 2.67 µM
43 | CCCC(C)N1CCC(N(Cc2ccccc2)C(=O)Nc2cc(C)oc2C(F)(F)F)CC1 (stereo not shown) [A255] | > 60.2 µM
44 | C=CC(=O)NCc1cccc(CN(C(=O)Nc2cccc(C(F)(F)F)c2)C2CCN(C(C)CCC)CC2)c1 (stereo not shown) [drawing 845] | 0.018 µM
45 | O=C(Nc1ccc2c(c1)C(=O)NCC2)NC1CCN(Cc2ccccc2)CC1 [B122] | > 84.8 µM
46 | CCCC(C)N1CCC(N(Cc2ccccc2)C(=O)Nc2ccc(F)cc2Br)CC1 (stereo not shown) [A302] | > 86.9 µM
47 | O=C(Nc1ccc(Cl)cc1)NC1CCN(Cc2ccccc2)CC1 [B58] | > 67.6 µM
48 | CCC(CC)N1CCC(N(Cc2ccccc2)C(=O)Nc2cc(F)cc(C(F)(F)F)c2)CC1 [A120] | 0.616 µM

Row | Compound | IC50
49 | COc1ccc(CN(C(=O)Nc2cc(C)ccc2C)C2CCN(C(C)=O)CC2)cc1 [B82] | > 67.6 µM
50 | CCCCN1CCC(N(Cc2ccccc2)C(=O)Nc2cccc(Cl)c2)CC1 [A60] | 0.357 µM
51 | CC(=O)c1cccc(NC(=O)NC2CCN(Cc3ccccc3)CC2)c1 [B102] | > 70.6 µM
52 | COc1ccccc1NC(=O)N(Cc1ccc(C)o1)C1CCN(Cc2ccccc2)CC1 [B90] | > 67.6 µM
53 | CCCC(C)N1CCC(N(Cc2ccccc2)C(=O)Nc2ccc(C)cc2)CC1 (stereo not shown) [A50] | 0.268 µM
54 | CCCC(C)N1CCC(N(Cc2ccccc2)C(=O)Nc2ccc(C3CCCCC3)cc2)CC1 (stereo not shown) [A110] | 2.21 µM
55 | O=C(Nc1cc(F)cc(C(F)(F)F)c1)N(Cc1ccccc1)C1CCN(Cc2cccc(N3CCCC3)c2)CC1 [A202] | > 19.4 µM
56 | Cc1cc(C)cc(C(=O)N2CCC(c3nc4ccccc4s3)CC2)c1 [D10] | 25.4 µM
57 | CCCC(C)N1CCC(N(Cc2ccc3c(c2)OCO3)C(=O)Nc2ccc(Cl)c(Cl)c2)CC1 (stereo not shown) [A9] | 0.0788 µM
58 | O=C(Nc1cccc(CN2CCOCC2)c1)NC1CCN(Cc2ccccc2)CC1 [A276, 1-(1-Benzylpiperidin-4-yl)-3-(3-(Morpholinomethyl)Phenyl)Urea] | > 68.7 µM
59 | CCCC(C)N1CCC(N(Cc2ccccc2)C(=O)Nc2nc3c(OC)cccc3s2)CC1 (stereo not shown) [A301] | > 86.1 µM
60 | 1-Benzyl-1-(1-(Pentan-2-yl)Piperidin-4-yl)-3-(3-(Trifluoromethyl)Phenyl)Urea [A293] | > 78.2 µM
61 | O=C(c1ccc(Cl)cc1)N1CCC(c2nc3ccccc3s2)CC1 [D20] | > 67.3 µM
62 | C=CS(=O)(=O)NCc1cccc(CN(C(=O)Nc2cccc(C(F)(F)F)c2)C2CCN(C(C)CCC)CC2)c1 (stereo not shown) [A1] | 0.0043 µM
63 | CCCC(C)N1CCC(N(Cc2ccccc2)C(=O)Nc2cccc(Cc3ccccc3)c2)CC1 (stereo not shown) [A23] | 0.14 µM
64 | O=C(c1ccc(Cl)c(Cl)c1)N1CCC(c2nc3ccccc3s2)CC1 [D7] | 19.5 µM
65 | CCN1CCC(N(Cc2ccco2)C(=O)Nc2ccc(OC)c(OC)c2)CC1 [B77] | > 67.6 µM
66 | COc1ccc(CN(C(=O)Nc2ccc(C)cc2)C2CCN(C(C)=O)CC2)cc1 [B83] | > 67.6 µM
67 | CCCC(C)N1CCC(N(Cc2ccccc2)C(=O)Nc2ccc(Cl)c(Cl)c2F)CC1 (stereo not shown) [A40] | 0.227 µM
68 | CCCC(C)N1CCC(N(Cc2cccc(NC(=O)CCl)c2)C(=O)Nc2cccc(C(F)(F)F)c2)CC1 (stereo not shown) [drawing 842] | 0.095 µM
69 | CC(=O)N1CCC(N(Cc2ccco2)C(=O)Nc2ccccc2Br)CC1 [B71] | > 67.6 µM

Row | Compound | IC50
70 | FC(F)(F)c1cccc(CN2CCN(Cc3nc4ccccc4[nH]3)CC2)c1 [B28] | > 46.3 µM
71 | CN1CC(NC(=O)NC2CCN(Cc3ccccc3)CC2)c2ccccc2C1=O (stereo not shown) [B17] | 55.6 µM
72 | O=C(Nc1ccc(F)c(Cl)c1)N(Cc1ccc2c(c1)OCO2)C1CCN(Cc2ccccc2)CC1 [B16] | 50.7 µM
73 | COc1cccc(NC(=O)NC2CCN(C(C)C)CC2)c1 [B60] | > 67.6 µM
74 | COc1ccc(CN(C(=O)Nc2ccccc2Cl)C2CCN(C(C)=O)CC2)cc1 [B13] | 37.5 µM
75 | CCCN1CCC(N(Cc2ccccc2)C(=O)Nc2cccc(C(F)(F)F)c2)CC1 [A85, 1-Benzyl-1-(1-Propylpiperidin-4-yl)-3-(3-(Trifluoromethyl)Phenyl)Urea] | 0.98 µM
76 | CCCC(C)N1CCC(N(Cc2ccccc2)C(=O)NCc2ccc(N)cc2)CC1 (stereo not shown) [A233] | > 39.4 µM
77 | C#CCCCN1CCC(N(Cc2ccccc2NC(=O)CC)C(=O)Nc2ccc(Cl)c(Cl)c2)CC1 [A200] | > 15 µM
78 | COC(=O)[C@@H]1C[C@@H](NC(=O)Nc2ccccc2)CN1Cc1ccccc1C(F)(F)F [B99] | > 68 µM
79 | CCCC(C)N1CCC(N(Cc2ccccc2)C(=O)Nc2ccc(Cl)nc2)CC1 (stereo not shown) [A277] | > 68.8 µM
80 | CCCN1CCC(NC(=O)Nc2ccc(Cl)cc2Cl)CC1 [B14] | 43 µM
81 | CCCC(C)N1CCC(N(Cc2ccccc2)C(=O)Nc2cccc(F)c2F)CC1 (stereo not shown) [A162] | 8.22 µM
82 | O=C(Nc1ccccc1C(F)(F)F)NC1CCN(Cc2ccccc2)CC1 [B103] | > 70.7 µM
83 | CCCC(C)N1CCC(N(Cc2ccccc2)C(=O)Nc2ccc(Cl)c([N+](=O)[O-])c2)CC1 (stereo not shown) [A11] | 0.0818 µM
84 | CCCC(C)N1CCC(N(Cc2ccccc2)C(=O)Nc2ccc(CN(C)C)cc2)CC1 (stereo not shown) [A236] | > 45.4 µM
85 | COc1cc(C(=O)N2CCC(c3nc4ccccc4s3)CC2)cc(OC)c1OC [D2] | 8.53 µM
86 | CCCN1CCC(NC(=O)Nc2ccccc2Cl)CC1 [B51] | > 67.6 µM
87 | O=C(Nc1ccc(C(=O)N2CCOCC2)cc1)Nc1cccc(C(F)(F)F)c1 [B46] | > 66.3 µM
88 | CCCC(C)N1CCC(N(Cc2ccccc2)C(=O)Nc2ccc(Cl)c(F)c2)CC1 (stereo not shown) [A49] | 0.265 µM
